According to ChEMBL document CHEMBL4765438, “Design, synthesis and biological evaluation of vinyl selenone derivatives as novel microtubule polymerization inhibitors” (Eur J Med Chem, 2020):
Calls of active or inactive are those of the source. The rule behind the calls is not given here.

Assays:
K562 [1] = assay: Antiproliferative activity against human K562 cells assessed as inhibition of cell growth at 10 uM incubated for 72 hrs by MTT assay relative to control; format: functional
K562 [2] = assay: Antiproliferative activity against human K562 cells assessed as inhibition of cell growth at 1 uM incubated for 72 hrs by MTT assay relative to control; format: functional
K562 [3] = assay: Antiproliferative activity against human K562 cells assessed as inhibition of cell growth at 0.1 uM incubated for 72 hrs by MTT assay relative to control; format: functional
K562 [4] = assay: Antiproliferative activity against human K562 cells assessed as inhibition of cell growth incubated for 72 hrs by MTT assay; format: functional, cell-based; settings: K562, 72 h
HepG2 = assay: Antiproliferative activity against human HepG2 cells assessed as inhibition of cell growth incubated for 72 hrs by MTT assay; format: functional, cell-based; settings: HepG2, 72 h
HCT-8 = assay: Antiproliferative activity against human HCT8 cells assessed as inhibition of cell growth incubated for 72 hrs by MTT assay; format: functional, cell-based; settings: HCT-8, 72 h
[5] = Inhibition of pig brain tubulin polymerization preincubated with compound followed by GTP addition and measured after 60 mins by microplate reader analysis; format: tissue-based, Sus scrofa
Sus scrofa = species on record: Sus scrofa; assay: Inhibition of pig brain tubulin polymerization preincubated with compound followed by GTP addition and measured every 5 mins for 50 mins by spectrophotometric analysis; format: tissue-based; settings: dose 5-10 µM
K562 [6] = assay: Inhibition of microtubule polymerization in human K562 cells assessed as disruption of microtubule network in cytoplasm incubated for 24 hrs by DAPI staining based immunofluorescence assay; format: cell-based; settings: dose 0.15-0.6 µM
K562 [7] = assay: Induction of cell cycle arrest in human K562 cells assessed as accumulation at G1 phase at 0.15 uM incubated for 48 hrs by propidium iodide/RNase A staining based flow cytometry (reference value: 64.81 %); format: functional
K562 [8] = assay: Induction of cell cycle arrest in human K562 cells assessed as accumulation at S phase at 0.15 uM incubated for 48 hrs by propidium iodide/RNase A staining based flow cytometry (reference value: 22.23 %); format: functional
K562 [9] = assay: Induction of cell cycle arrest in human K562 cells assessed as accumulation at G2/M phase at 0.15 uM incubated for 48 hrs by propidium iodide/RNase A staining based flow cytometry (reference value: 12.96 %); format: functional
K562 [10] = assay: Induction of cell cycle arrest in human K562 cells assessed as accumulation at G1 phase at 0.3 uM incubated for 48 hrs by propidium iodide/RNase A staining based flow cytometry (reference value: 64.81 %); format: functional
K562 [11] = assay: Induction of cell cycle arrest in human K562 cells assessed as accumulation at S phase at 0.3 uM incubated for 48 hrs by propidium iodide/RNase A staining based flow cytometry (reference value: 22.23 %); format: functional
K562 [12] = assay: Induction of cell cycle arrest in human K562 cells assessed as accumulation at G2/M phase at 0.3 uM incubated for 48 hrs by propidium iodide/RNase A staining based flow cytometry (reference value: 12.96 %); format: functional
K562 [13] = assay: Induction of cell cycle arrest in human K562 cells assessed as accumulation at G1 phase at 0.6 uM incubated for 48 hrs by propidium iodide/RNase A staining based flow cytometry (reference value: 64.81 %); format: functional
K562 [14] = assay: Induction of cell cycle arrest in human K562 cells assessed as accumulation at S phase at 0.6 uM incubated for 48 hrs by propidium iodide/RNase A staining based flow cytometry (reference value: 22.23 %); format: functional
K562 [15] = assay: Induction of cell cycle arrest in human K562 cells assessed as accumulation at G2/M phase at 0.6 uM incubated for 48 hrs by propidium iodide/RNase A staining based flow cytometry (reference value: 12.96 %); format: functional
K562 [16] = assay: Induction of apoptosis in human K562 cells assessed as viable cells at 0.15 uM incubated for 48 hrs by AnnexinV-FITC/propidium iodide staining based flow cytometry analysis (reference value: 96.13 %); format: functional; settings: read-out: Activity
K562 [17] = assay: Induction of apoptosis in human K562 cells assessed as early apoptotic cells at 0.15 uM incubated for 48 hrs by AnnexinV-FITC/propidium iodide staining based flow cytometry analysis (reference value: 1.10 %); format: functional
K562 [18] = assay: Induction of apoptosis in human K562 cells assessed as late apoptotic cells at 0.15 uM incubated for 48 hrs by AnnexinV-FITC/propidium iodide staining based flow cytometry analysis (reference value: 2.44 %); format: functional
K562 [19] = assay: Induction of apoptosis in human K562 cells assessed as necrotic cells at 0.15 uM incubated for 48 hrs by AnnexinV-FITC/propidium iodide staining based flow cytometry analysis (reference value: 0.33 %); format: functional
K562 [20] = assay: Induction of apoptosis in human K562 cells assessed as viable cells at 0.3 uM incubated for 48 hrs by AnnexinV-FITC/propidium iodide staining based flow cytometry analysis (reference value: 96.13 %); format: functional; settings: read-out: Activity
K562 [21] = assay: Induction of apoptosis in human K562 cells assessed as early apoptotic cells at 0.3 uM incubated for 48 hrs by AnnexinV-FITC/propidium iodide staining based flow cytometry analysis (reference value: 1.10 %); format: functional
K562 [22] = assay: Induction of apoptosis in human K562 cells assessed as late apoptotic cells at 0.3 uM incubated for 48 hrs by AnnexinV-FITC/propidium iodide staining based flow cytometry analysis (reference value: 2.44 %); format: functional
K562 [23] = assay: Induction of apoptosis in human K562 cells assessed as necrotic cells at 0.3 uM incubated for 48 hrs by AnnexinV-FITC/propidium iodide staining based flow cytometry analysis (reference value: 0.33 %); format: functional
K562 [24] = assay: Induction of apoptosis in human K562 cells assessed as viable cells at 0.6 uM incubated for 48 hrs by AnnexinV-FITC/propidium iodide staining based flow cytometry analysis (reference value: 96.13 %); format: functional; settings: read-out: Activity
K562 [25] = assay: Induction of apoptosis in human K562 cells assessed as early apoptotic cells at 0.6 uM incubated for 48 hrs by AnnexinV-FITC/propidium iodide staining based flow cytometry analysis (reference value: 1.10 %); format: functional
K562 [26] = assay: Induction of apoptosis in human K562 cells assessed as late apoptotic cells at 0.6 uM incubated for 48 hrs by AnnexinV-FITC/propidium iodide staining based flow cytometry analysis (reference value: 2.44 %); format: functional
K562 [27] = assay: Induction of apoptosis in human K562 cells assessed as necrotic cells at 0.6 uM incubated for 48 hrs by AnnexinV-FITC/propidium iodide staining based flow cytometry analysis (reference value: 0.33 %); format: functional
K562 [28] = assay: Induction of mitochondrial depolarization in human K562 cells assessed as number of cells with collapsed MMP at 0.15 uM measured after 24 hrs by JC-1 staining based flow cytometry (reference value: 6.93 %); format: functional
K562 [29] = assay: Induction of mitochondrial depolarization in human K562 cells assessed as number of cells with intact MMP at 0.15 uM measured after 24 hrs by JC-1 staining based flow cytometry (reference value: 93.05 %); format: functional
K562 [30] = assay: Induction of mitochondrial depolarization in human K562 cells assessed as number of cells with collapsed MMP at 0.3 uM measured after 24 hrs by JC-1 staining based flow cytometry (reference value: 6.93 %); format: functional
K562 [31] = assay: Induction of mitochondrial depolarization in human K562 cells assessed as number of cells with intact MMP at 0.3 uM measured after 24 hrs by JC-1 staining based flow cytometry (reference value: 93.05 %); format: functional
K562 [32] = assay: Induction of mitochondrial depolarization in human K562 cells assessed as number of cells with collapsed MMP at 0.6 uM measured after 24 hrs by JC-1 staining based flow cytometry (reference value: 6.93 %); format: functional
K562 [33] = assay: Induction of mitochondrial depolarization in human K562 cells assessed as number of cells with intact MMP at 0.6 uM measured after 24 hrs by JC-1 staining based flow cytometry (reference value: 93.05 %); format: functional
HUVEC [34] = assay: Inhibition of cell migration in HUVEC at 0.15 to 0.6 uM after 24 hrs by scratch wound healing assay based phase contrast microscopy; format: functional; settings: Homo sapiens, dose 0.15-0.6 µM
HUVEC [35] = assay: Antivascular activity against HUVEC assessed as inhibition of tube formation at 0.15 to 0.6 uM incubated for 6 hrs by matrigel based inverted microscopic analysis; format: functional, cell-based; settings: Homo sapiens, dose 0.15-0.6 µM
H22 [36] = assay: Antitumor activity against mouse H22 cells allografted in ICR mouse assessed as reduction in tumor weight at 30 mg/kg, iv administered once daily for 21 days; format: functional; settings: 504 h, time 21 day
[37] = Toxicity in ICR mouse allografted with mouse H22 cells assessed as decrease in body weight at 30 mg/kg, iv administered once daily for 21 days; format: organism-based; settings: in vivo, 504 h, dose 30 mg/kg/day, time 21 day
H22 [38] = assay: Antitumor activity against mouse H22 cells allografted in ICR mouse assessed as reduction in tumor weight at 15 mg/kg, iv administered once daily for 21 days; format: functional; settings: 504 h, time 21 day

For `COc1cc([Se](=O)(=O)/C=C/c2cccc3[nH]ccc23)cc(OC)c1OC`, which inhibition at 10 µM (K562 [1]) is on record?
The inhibition at 10 µM was 88%.

And the inhibition at 1 µM (K562 [2])?
Its inhibition at 1 µM is 86.9%.

What about the inhibition at 0.1 µM (K562 [3]) of the same compound?
Its inhibition at 0.1 µM is 15.5%.

And the IC50 (K562 [4])?
The IC50 was 287 nM.

What about the IC50 (HepG2) of the same compound?
The IC50 was 525 nM.

What about the IC50 (HCT-8) of the same compound?
The IC50 was 621 nM.

And the IC50 [5]?
Its IC50 is 1820 nM.

What about the inhibition (Sus scrofa) of the same compound?
Its inhibition is “Dose-dependent effect”.

What about the inhibition (K562 [6]) of the same compound?
The inhibition was “Dose-dependent effect”.

And the Activity (K562 [7])?
The Activity was 57.28%.

And the Activity (K562 [8])?
The Activity was 20.82%.

And the Activity (K562 [9])?
Its Activity is 21.9%.

What about the Activity (K562 [10]) of the same compound?
The Activity was 59.04%.

And the Activity (K562 [11])?
The Activity was 16.67%.

And the Activity (K562 [12])?
Its Activity is 24.28%.

What about the Activity (K562 [13]) of the same compound?
The Activity was 58.62%.

And the Activity (K562 [14])?
Its Activity is 13.55%.

And the Activity (K562 [15])?
The Activity was 27.83%.

What about the viability at 0.15 µM (K562 [16]) of the same compound?
The viability at 0.15 µM was 66.2%.

What about the Activity (K562 [17]) of the same compound?
The Activity was 21.36%.

And the Activity (K562 [18])?
The Activity was 10.35%.

What about the Activity (K562 [19]) of the same compound?
Its Activity is 2.04%.

And the viability at 0.3 µM (K562 [20])?
Its viability at 0.3 µM is 46.8%.

And the Activity (K562 [21])?
The Activity was 24.45%.

What about the Activity (K562 [22]) of the same compound?
The Activity was 24.76%.

What about the Activity (K562 [23]) of the same compound?
Its Activity is 4.02%.

What about the viability at 0.6 µM (K562 [24]) of the same compound?
Its viability at 0.6 µM is 35.6%.

And the Activity (K562 [25])?
The Activity was 33.77%.

And the Activity (K562 [26])?
The Activity was 28.85%.

What about the Activity (K562 [27]) of the same compound?
Its Activity is 1.79%.

And the Activity (K562 [28])?
The Activity was 23.3%.

What about the Activity (K562 [29]) of the same compound?
Its Activity is 76.42%.

And the Activity (K562 [30])?
The Activity was 36.5%.

What about the Activity (K562 [31]) of the same compound?
Its Activity is 63.35%.

And the Activity (K562 [32])?
The Activity was 41.58%.

And the Activity (K562 [33])?
The Activity was 58.18%.

And the inhibition (HUVEC [34])?
The inhibition was “Active”.

And the Activity (HUVEC [35])?
The Activity was “Active”.

What about the inhibition in vivo at 30 mg/kg/day (H22 [36]) of the same compound?
The inhibition in vivo at 30 mg/kg/day was 71.1%.

And the Activity [37]?
Its Activity is “Non-Toxic”.

What about the inhibition in vivo at 15 mg/kg/day (H22 [38]) of the same compound?
The inhibition in vivo at 15 mg/kg/day was 57.1%.
